Reference: PubChem BioAssay (NCI)
Values joined by “and” are separate entries in the source; they are usually repeats but may differ in a detail not shown here. Identical values can stand only once.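 Grown in 96-well plates, cells were treated for 48 hours with each compound at five concentrations. Insufficient inhibition: endpoint recorded as highest concentration tested. The concentration for 50% growth inhibition is given as GI50. The concentration for full growth arrest is given as TGI.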

Test system: MDA-MB-468 breast
Assay: NCI tumour cell line growth inhibition, 48 h

SMILES | GI50 | TGI
CNCc1cccc2c1OCCOCCOCCNS(=O)(=O)c1ccc(cc1)-c1cnc(N)c(n1)C(=O)N2 | 1.51 µM | 3.25 µM
CN1CCN(c2ccc(NC(=O)Nc3ccc4c(ccn4-c4cccc(C(N)=O)n4)c3)cc2C(F)(F)F)CC1 | 4.3 µM | 12.1 µM
CCN1CCN(c2ccc(NC(=O)Nc3ccc4c(ccn4-c4ccnc(C(=O)NC)c4)c3)cc2C(F)(F)F)CC1 | > 14.3 µM | > 14.3 µM
COc1ccccc1CNCCCN1C(=O)c2ccc3c4c(ccc(c24)C1=O)C(=O)N(CCCNCc1ccccc1OC)C3=O | 0.138 µM | 0.288 µM
Oc1ccc(CSc2nnc(-c3ccc(Oc4ccccc4)cc3)o2)c2cccnc12 | 1.76 µM | > 100 µM
O=[N+]([O-])c1ccc(N/N=C\c2cc(Br)ccc2O)nc1 | 1.71 µM | 4.32 µM
N#C[Se]CCN1C(=O)c2ccccc2C1=O | 2.01 µM | 6.99 µM
COc1cc(/C=C/C(=O)c2nc3cc(F)ccc3nc2C)cc(OC)c1OC | 2.75 µM | > 100 µM
CN(C)c1ccc(/C=N/N=C(\C#N)[S][Sn]([Cl])([c]2ccccc2)[c]2ccccc2)cc1 | 0.48 µM | 2 µM
CN(C)[C@@H]1C(=O)C(C(=O)NCc2nc3[nH]cnc(=S)c3[nH]2)=C(O)[C@@]2(O)C(=O)C3=C(O)c4c(O)cccc4[C@@](C)(O)[C@H]3C[C@@H]12 | 0.955 µM | > 100 µM
FC(F)(F)c1cccc(CNC2CCN(CCc3ccccc3)CC2)c1 | 13.5 µM | 30.2 µM
O=C(NO)c1ccc(CNc2cccc3nc(C4CC4)n(-c4ccccc4)c(=O)c23)cc1 | 1.88 µM | 5.16 µM
C/C(=C\c1csc(C)n1)[C@@H]1C[C@@H]2O[C@]2(C)CCC[C@H](C)[C@H](O)[C@@H](C)C(=O)C(C)(C)[C@@H](O)CC(=O)N1 | 0.000233 µM | 0.00058 µM
CNS(=O)(=O)Nc1nccc(Cc2c(C)c3ccc(Oc4ncccn4)cc3oc2=O)c1F | 3.46 µM and > 5.44 µM | 82.6 µM and > 10 µM
Oc1ccc(CSc2nnc(-c3ccccc3)n2-c2ccccc2)c2cccnc12 | 0.497 µM | 6.82 µM
COc1ccc([C@@H]2[C@@H](Oc3ccccc3)C(=O)N2c2cc(OC)c(OC)c(OC)c2)cc1F | 0.111 µM | > 100 µM
CCN1CCN(CC(=O)Nc2nc3ccc(NCc4ccc(Br)cc4)cc3s2)CC1 | 1.74 µM | 4.51 µM
O=C(O)CSc1cc(NS(=O)(=O)c2ccc(Br)cc2)c2ccccc2c1O | 1.87 µM | 4.34 µM
CC[C@]12C=CCN3CC[C@@]4(c5ccc(OC)cc5N(C)[C@H]4[C@@](O)(C(=O)OC)[C@@H]1OC(=O)CCCN1CCN(CCCC(=O)O[C@@H]4[C@]5(CC)C=CCN6CC[C@@]7(c8ccc(OC)cc8N(C)[C@H]7[C@@]4(O)C(=O)OC)[C@@H]65)CC1)[C@@H]32 | 0.252 µM | 0.73 µM
COc1ccc(-n2c(=O)c3ccccc3n(Cc3ccc(C(=O)NO)cc3)c2=O)cc1 | 1.44 µM | 3.49 µM
CC1=C(C(=O)Nc2ccc3[nH]ncc3c2)C(c2ccc(F)cc2)N=C(c2ccc(C(F)(F)F)nc2)N1 (configuration not stated) | 5.65 µM | 15.5 µM

SMILES | GI50 | TGI
O=C1[C@H](Cc2ccc(O)cc2)N2C(=O)CCN(C(=O)NCc3ccccc3)[C@H]2CN1Cc1cccc2ccccc12 | 5.66 µM | 23.2 µM
OCc1ccc(N2CCc3ccc(F)cc3C2)cc1Cl | < 0.0129 µM | 0.0351 µM
CCN(CC)CCn1c2ccc(O)cc2c2sc3cc(OC)ccc3c(=O)c21 | 1.54 µM | 3 µM
O=C1NC(=NCc2cccs2)O/C1=C\c1ccc2ncccc2c1 | 3.41 µM | 13.9 µM
COc1ccc(Cn2c(Br)c3c(c2-c2cc(OC)c(OC)c(OC)c2)CCc2sc(N)nc2-3)cc1 | 3.13 µM | 41.9 µM
CN(C)CCCC1(c2ccc(F)cc2)OCc2cc(-c3csc4ccccc34)ccc21 (configuration not stated) | 1.54 µM | 3.12 µM
Cc1ccc(-c2nc([P+](c3ccccc3)(c3ccccc3)c3ccccc3)c(N3CCOCC3)o2)cc1 | 0.248 µM | 0.87 µM
O=S(=O)(Nc1ccccc1)c1ccc(C2CC3(Cl)C(Cl)=C(Cl)C2(Cl)C3(Cl)Cl)cc1 (configuration not stated) | 2.64 µM | 7.86 µM
CC(C)c1ccc2c(c1)CCC1C2CCCC1(C)NCc1ccccc1 (configuration not stated) | 1.9 µM | 4.16 µM
Oc1c(Br)cc(Cl)cc1C(c1cc(Cl)cc(Br)c1O)C(Cl)(Cl)Cl | 2.2 µM | 7.25 µM
O=c1c(Oc2ccc(F)cc2F)cc2cnc(NC3CCOCC3)nc2n1C1CC1 | > 25 µM | > 25 µM
COc1ccc(-c2c(Nc3ccccn3)nc3c(C4=CCCCC4)c(-c4ccccc4)[nH]n3c2=O)cc1 | 1.91 µM | 8.65 µM
COc1cc(/C=C/c2cc(/C=C/c3ccc(O)c(OC)c3)n(C(=O)Nc3ccc(C)cc3)n2)ccc1O | 0.301 µM | 1.71 µM
Nc1cc(C(F)(F)F)c(-c2nc(N3CCOCC3)nc(N3CCOCC3)n2)cn1 | 0.18 µM | 0.897 µM
COc1cc(NC(=O)COc2ccccc2)c(C(N)=O)cc1OC | 0.848 µM | 72.1 µM
CN1CCN(C(=O)/C=C/c2ccc([N+](=O)[O-])o2)CC1 | 12.1 µM | 28.5 µM
CCOC(=O)C#Cc1c(C(=O)OCC)nnn1[C@@H]1O[C@H](COC)[C@@H](OC)[C@H]1OC | 2.13 µM | 5.43 µM
O=C1C[C@@H]2OCC=C3C[N+]4([O-])CC[C@]56c7ccccc7N1[C@H]5[C@H]2[C@H]3C[C@@H]64 (some centres not stated) | > 100 µM | > 100 µM
O=C(CCN1CCOCC1)Nc1ccc(Cn2nnc3c2C(=O)c2nnn(Cc4ccc(NC(=O)CCN5CCOCC5)cc4)c2C3=O)cc1 | 0.257 µM | 0.627 µM
Cc1cccc(Oc2ccc(Nc3ncnc4ccc(NC(=O)CN(C)C)cc34)cc2Cl)c1 | 0.18 µM | 1.38 µM
